Measurements taken from patent US8883745B2, “C—glycolipids with enhanced Th-1 profile” (New York University, priority 2006, dated 2014).

What was measured:
Assay type in all cases: in vivo
IL-4 = IL-4 levels in sera upon i.v. glycolipid administration to BALB/c mice (ELISA); set-up: unit not given here
Description: (§1) Five- to six-week-old female C57BL/6 mice and BALB/c mice were purchased from Taconic. Each glycolipid was stored at 1 mg/ml in 100% DMSO. Mice were injected intravenously with 1 μg of each glyocolipid diluted in 200 μL sterile phosphate buffered saline (PBS). At indicated time points, sera were collected from each animal, and concentrations of IFN-γ, IL-4, and IL-12 in the sera were evaluated by enzyme-linked immunosorbent assay (ELISA). Serum concentrations of IFN-γ, IL-4, and IL-12 were evaluated using an ELISA kit (eBioscience, San Diego, Calif.). Briefly, 96 well flat-bottom ELISA plates (NUNC) were coated with capture antibody according to the manufacture's recommendation and incubated overnight at 4° C. The plates were washed with PBS+0.05% Tween 20 (PBS-T), then incubated with manufacturer provided blocking solution for 1 hr at room temperature to block non-specific binding sites. After washing with PBS-T, sera diluted 1:10 was added to the wells and incubated for 2 hrs at room temperature. Plates were then incubated at room temperature for 1 hr with biotintylated detection antibody, washed, incubated with avidin conjugated to horse radish peroxidase (HRP) for 30 min at room temperature, washed, and finally incubated with tetramethylbenzidine substrate solution in the dark for 10 minutes at room temperature. The antibodies, avidin-HRP, and substrate solution were all diluted according to the manufacture's recommendation. Reactions were stopped with 2.0N sulfuric acid and the cytokine concentration in each well was determined by comparing the absorbance at 450 nm in each well to known standards. The levels of Th1- and Th2-type cytokines were determined in two different genetic backgrounds, i.e., in C57BL/6 mice and BALB/c mice. The following compounds were administered: A=compound (A-1 trans-conformer), B=compound (A-2), C=compound (A-3), D=compound (A-4), E=compound (A-5), Z=control (PBS alone), CRONY=α-C-GalCer, KRN=α-GalCer, GCK109 (A-1 trans-conformer), GCK151 (A-1 cis-conformer), GCK152 (A-7). The levels of cytokines were measured at 0, 2, 6, 12, 24, 48, and 72 hours after the compound administration. The levels of Th1-type cytokines IFN-γ and IL-12 are summarized in FIGS. 2A-C and 3A-C, respectively. Table 7 provides IFN-γ/IL-4 and IL-12/IL-4 ratios for various compounds, which can be used as indicators of their ability to selectively stimulate Th1-type immune responses.

IL-12 [1] = experiment: IL-12 levels in sera upon i.v. glycolipid administration to BALB/c mice (ELISA); set-up: IL-12 levels, test 1 / IL-12 levels, test 2 / IL-12 levels, average / IL-12 levels, Total: unit not given here
Description: as §1

IFN-γ = IFN-γ levels in sera upon i.v. glycolipid administration to BALB/c mice (ELISA); set-up: IFN-γ levels, test 1 / IFN-γ levels, test 2 / IFN-γ levels, average / IFN-γ levels, Total: unit not given here; details: BALB/c
Description: as §1

IL-12 [2] = experiment: IL-12 levels in sera upon i.v. glycolipid administration to C57BL/6 mice (ELISA); set-up: IL-12 levels, test 1 / IL-12 levels, test 2 / IL-12 levels, average / IL-12 levels, Total: unit not given here
Description: as §1

[3] = ratio calculated from Tables 1-6

CCCCCCCCCCCCCCCCCCCCCCCCCC(=O)N[C@@H](CO[C@H]1O[C@H](CO)[C@H](O)[C@H](O)[C@H]1O)[C@H](O)[C@H](O)CCCCCCCCCCCCCC [KRN, (2S,3S,4R)-1-O-(α-D-galactopyranosyl)-2-(N-hexacosanoylamino)-1,3,4-,-octadecanetriol, reference compound]
IL-4 level, average (IL-4; hour 0): 27
IL-4 level, test 1 (IL-4; hour 0): 27
IL-4 level, test 2 (IL-4; hour 0): 27
IL-4 level, average (IL-4; hour 2): 1690
IL-4 level, test 1 (IL-4; hour 2): 1809
IL-4 level, test 2 (IL-4; hour 2): 1571
IL-4 level, average (IL-4; hour 6): 204
IL-4 level, test 1 (IL-4; hour 6): 214
IL-4 level, test 2 (IL-4; hour 6): 194
IL-4 level, average (IL-4; hour 12): 89
IL-4 level, test 1 (IL-4; hour 12): 78
IL-4 level, test 2 (IL-4; hour 12): 100
IL-4 level, average (IL-4; hour 24): 50.5
IL-4 level, test 1 (IL-4; hour 24): 51
IL-4 level, test 2 (IL-4; hour 24): 50
IL-4 level, average (IL-4; hour 48): 44
IL-4 level, test 1 (IL-4; hour 48): 46
IL-4 level, test 2 (IL-4; hour 48): 42
IL-4 level, average (IL-4; hour 72): 12
IL-4 level, test 1 (IL-4; hour 72): 12
IL-4 level, test 2 (IL-4; hour 72): 12
IL-4 level, Total (IL-4; total over hours 0-72): 2117
IL-12/IL-4 (BALB/c) (IL-12 [1]; [3]): 2
IL-12 levels, average (IL-12 [1]; serum, hour 0): 5
IL-12 levels, test 1 (IL-12 [1]; serum, hour 0): 5
IL-12 levels, test 2 (IL-12 [1]; serum, hour 0): 5
IL-12 levels, average (IL-12 [1]; serum, hour 2): 124
IL-12 levels, test 1 (IL-12 [1]; serum, hour 2): 69
IL-12 levels, test 2 (IL-12 [1]; serum, hour 2): 179
IL-12 levels, average (IL-12 [1]; serum, hour 6): 3067.5
IL-12 levels, test 1 (IL-12 [1]; serum, hour 6): 2567
IL-12 levels, test 2 (IL-12 [1]; serum, hour 6): 3568
IL-12 levels, average (IL-12 [1]; serum, hour 12): 437.5
IL-12 levels, test 1 (IL-12 [1]; serum, hour 12): 282
IL-12 levels, test 2 (IL-12 [1]; serum, hour 12): 593
IL-12 levels, average (IL-12 [1]; serum, hour 24): 265.5
IL-12 levels, test 1 (IL-12 [1]; serum, hour 24): 119
IL-12 levels, test 2 (IL-12 [1]; serum, hour 24): 412
IL-12 levels, average (IL-12 [1]; serum, hour 48): 68
IL-12 levels, test 1 (IL-12 [1]; serum, hour 48): 57
IL-12 levels, test 2 (IL-12 [1]; serum, hour 48): 79
IL-12 levels, average (IL-12 [1]; serum, hour 72): 61
IL-12 levels, test 1 (IL-12 [1]; serum, hour 72): 57
IL-12 levels, test 2 (IL-12 [1]; serum, hour 72): 65
IL-12 levels, Total (IL-12 [1]; serum, total over hours 0-72): 4030
IFN-γ/IL-4 (BALB/c) (IFN-γ; [3]): 10
IFN-γ levels, average (IFN-γ; serum, hour 0): 27
IFN-γ levels, test 1 (IFN-γ; serum, hour 0): 27
IFN-γ levels, test 2 (IFN-γ; serum, hour 0): 27
IFN-γ levels, average (IFN-γ; serum, hour 2): 945
IFN-γ levels, test 1 (IFN-γ; serum, hour 2): 841
IFN-γ levels, test 2 (IFN-γ; serum, hour 2): 1049
IFN-γ levels, average (IFN-γ; serum, hour 6): 4752.5
IFN-γ levels, test 1 (IFN-γ; serum, hour 6): 4170
IFN-γ levels, test 2 (IFN-γ; serum, hour 6): 5335
IFN-γ levels, average (IFN-γ; serum, hour 12): 8393.5
IFN-γ levels, test 1 (IFN-γ; serum, hour 12): 7996
IFN-γ levels, test 2 (IFN-γ; serum, hour 12): 8791
IFN-γ levels, average (IFN-γ; serum, hour 24): 6740
IFN-γ levels, test 1 (IFN-γ; serum, hour 24): 6497
IFN-γ levels, test 2 (IFN-γ; serum, hour 24): 6983
IFN-γ levels, average (IFN-γ; serum, hour 48): 112.5
IFN-γ levels, test 1 (IFN-γ; serum, hour 48): 86
IFN-γ levels, test 2 (IFN-γ; serum, hour 48): 139
IFN-γ levels, average (IFN-γ; serum, hour 72): 36
IFN-γ levels, test 1 (IFN-γ; serum, hour 72): 36
IFN-γ levels, test 2 (IFN-γ; serum, hour 72): 36
IFN-γ levels, Total (IFN-γ; serum, total over hours 0-72): 21008
IL-12/IL-4 (B6) (IL-12 [2]; C57BL/6, ratio calculated from Tables 1-6): 0.3
IL-12 levels, average (IL-12 [2]; C57BL/6, serum, hour 0): 5
IL-12 levels, test 1 (IL-12 [2]; C57BL/6, serum, hour 0): 5
IL-12 levels, test 2 (IL-12 [2]; C57BL/6, serum, hour 0): 5
IL-12 levels, average (IL-12 [2]; C57BL/6, serum, hour 2): 0
IL-12 levels, test 1 (IL-12 [2]; C57BL/6, serum, hour 2): 0
IL-12 levels, test 2 (IL-12 [2]; C57BL/6, serum, hour 2): 0
IL-12 levels, average (IL-12 [2]; C57BL/6, serum, hour 6): 1044.5
IL-12 levels, test 1 (IL-12 [2]; C57BL/6, serum, hour 6): 1116
IL-12 levels, test 2 (IL-12 [2]; C57BL/6, serum, hour 6): 973
IL-12 levels, average (IL-12 [2]; C57BL/6, serum, hour 12): 195
IL-12 levels, test 1 (IL-12 [2]; C57BL/6, serum, hour 12): 174
IL-12 levels, test 2 (IL-12 [2]; C57BL/6, serum, hour 12): 216
IL-12 levels, average (IL-12 [2]; C57BL/6, serum, hour 24): 0
IL-12 levels, test 1 (IL-12 [2]; C57BL/6, serum, hour 24): 0
IL-12 levels, test 2 (IL-12 [2]; C57BL/6, serum, hour 24): 0
IL-12 levels, average (IL-12 [2]; C57BL/6, serum, hour 48): 61.5
IL-12 levels, test 1 (IL-12 [2]; C57BL/6, serum, hour 48): 0
IL-12 levels, test 2 (IL-12 [2]; C57BL/6, serum, hour 48): 123
IL-12 levels, average (IL-12 [2]; C57BL/6, serum, hour 72): 132.5
IL-12 levels, test 1 (IL-12 [2]; C57BL/6, serum, hour 72): 101
IL-12 levels, test 2 (IL-12 [2]; C57BL/6, serum, hour 72): 164
IL-12 levels, Total (IL-12 [2]; C57BL/6, serum, total over hours 0-72): 1440
